Test results published in PubChem BioAssay AID1963965 (Molecular Pharmacology Branch, DTP, NCI, 2024).

Test system: 996289-038-R-J1-PDC spheroid viability
Assay: Anticancer human tumor 996289-038-R-J1-PDC patient-derived colon adenocarcinoma cell line growth inhibition [PI3K]
Details: spheroids with HUVEC and MSC; for IC50: curve of first compound; for viability, T/C: stronger effect = lower value; active = viability on the fitted dose curve at most 10% of control; inactive = the rest
Outline: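 Complex 3D spheroids (cancer cells + endothelial HUVEC + mesenchymal stem cells); drug pairs of targeted agent x inavolisib/alpelisib/duvelisib/copanlisib; half-log series from ~Cmax, max 10 microM if Cmax unknown; endpoint viability.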

[1] = second compound 0.00316 µM, first compound 0.0316 µM
[2] = second compound 0.00316 µM, first compound 0.1 µM
[3] = second compound 0.00316 µM, first compound 0.316 µM
[4] = second compound 0.00316 µM, first compound 1 µM
[5] = second compound 0.01 µM, first compound 0.0316 µM
[6] = second compound 0.01 µM, first compound 0.1 µM
[7] = second compound 0.01 µM, first compound 0.316 µM
[8] = second compound 0.01 µM, first compound 1 µM
[9] = second compound 0.0316 µM, first compound 0.0316 µM
[10] = second compound 0.0316 µM, first compound 0.1 µM
[11] = second compound 0.0316 µM, first compound 0.316 µM
[12] = second compound 0.0316 µM, first compound 1 µM
[13] = second compound 0.1 µM, first compound 0.0316 µM
[14] = second compound 0.1 µM, first compound 0.1 µM
[15] = second compound 0.1 µM, first compound 0.316 µM
[16] = second compound 0.1 µM, first compound 1 µM
[17] = second compound 0.316 µM, first compound 0.0316 µM
[18] = second compound 0.316 µM, first compound 0.1 µM
[19] = second compound 0.316 µM, first compound 0.316 µM
[20] = second compound 0.316 µM, first compound 1 µM
[21] = second compound 1 µM, first compound 0.0316 µM
[22] = second compound 1 µM, first compound 0.1 µM
[23] = second compound 1 µM, first compound 0.316 µM
[24] = second compound 1 µM, first compound 1 µM
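Note: spheroids exposed to compounds for seven days before viability read.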
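Throughout, for viability, T/C: luminescence used as a proxy for viable cell amount; percent viability relative to DMSO vehicle control as 100%.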

CCN1CCN(Cc2ccc(Nc3ncc(F)c(-c4cc(F)c5nc(C)n(C(C)C)c5c4)n3)nc2)CC1 + COc1c(OCCCN2CCOCC2)ccc2c3n(c(=NC(=O)c4cnc(N)nc4)nc12)CCN3
0.0412 µM: IC50 (second compound 0.1 µM)
> 1 µM: IC50 (second compound 0.00316 µM) | IC50 (second compound 0.01 µM) | IC50 (second compound 0.0316 µM)
inactive: viability, T/C (second compound 0.00316 µM, first compound 0.00316 µM) 107% | viability, T/C (second compound 0.00316 µM, first compound 0.01 µM) 90.6% | viability, T/C [1] 92.6% | viability, T/C [2] 97.2% | viability, T/C [3] 82.9% | viability, T/C [4] 75.8% | viability, T/C (second compound 0.01 µM, first compound 0.00316 µM) 105% | viability, T/C (second compound 0.01 µM, first compound 0.01 µM) 80.7% | viability, T/C [5] 82.5% | viability, T/C [6] 82.7% | viability, T/C [7] 79.2% | viability, T/C [8] 67.6% | viability, T/C (second compound 0.0316 µM, first compound 0.00316 µM) 75.2% | viability, T/C (second compound 0.0316 µM, first compound 0.01 µM) 72.5% | viability, T/C [9] 76% | viability, T/C [10] 57.3% | viability, T/C [11] 59.6% | viability, T/C [12] 53.3% | viability, T/C (second compound 0.1 µM, first compound 0.00316 µM) 57.4% | viability, T/C (second compound 0.1 µM, first compound 0.01 µM) 52.1% | viability, T/C [13] 50.2% | viability, T/C [14] 47.3% | viability, T/C [15] 43.7% | viability, T/C [16] 35.2% | viability, T/C (second compound 0.316 µM, first compound 0.00316 µM) 46.5% | viability, T/C (second compound 0.316 µM, first compound 0.01 µM) 33.5% | viability, T/C [17] 29.2% | viability, T/C [18] 27.2% | viability, T/C [19] 22.7% | viability, T/C [20] 24.1% | viability, T/C (second compound 1 µM, first compound 0.00316 µM) 21.2% | viability, T/C (second compound 1 µM, first compound 0.01 µM) 15.1% | viability, T/C [21] 18.4% | viability, T/C [22] 15.5% | viability, T/C [23] 17.6% | viability, T/C [24] 19%
< 0.00316 µM: IC50 (second compound 0.316 µM) | IC50 (second compound 1 µM)

CC1(C)CCC(Nc2ncc(C(F)(F)F)c(-c3c[nH]c4c(P(C)(C)=O)c(C#N)ccc34)n2)CN1 (centres undefined) + CC(Nc1ccc2c(c1)OCCn1cc(N3C(=O)OCC3C(F)F)nc1-2)C(N)=O
4.66 µM: IC50 (second compound 1 µM)
6.89 µM: IC50 (second compound 0.01 µM)
6.75 µM: IC50 (second compound 0.00316 µM)
inactive: viability, T/C [1] 111% | viability, T/C [2] 90.6% | viability, T/C [3] 81% | viability, T/C [4] 87.3% | viability, T/C (second compound 0.00316 µM, first compound 3.16 µM) 97.1% | viability, T/C (second compound 0.00316 µM, first compound 10 µM) 27.4% | viability, T/C [5] 110% | viability, T/C [6] 93% | viability, T/C [7] 81.7% | viability, T/C [8] 94.1% | viability, T/C (second compound 0.01 µM, first compound 3.16 µM) 89.7% | viability, T/C (second compound 0.01 µM, first compound 10 µM) 31.1% | viability, T/C [9] 99.3% | viability, T/C [10] 83.6% | viability, T/C [11] 85.5% | viability, T/C [12] 81.9% | viability, T/C (second compound 0.0316 µM, first compound 3.16 µM) 88.5% | viability, T/C (second compound 0.0316 µM, first compound 10 µM) 29.7% | viability, T/C [13] 89% | viability, T/C [14] 76.3% | viability, T/C [15] 81.2% | viability, T/C [16] 82.2% | viability, T/C (second compound 0.1 µM, first compound 3.16 µM) 81% | viability, T/C (second compound 0.1 µM, first compound 10 µM) 22.9% | viability, T/C [17] 73.9% | viability, T/C [18] 72% | viability, T/C [19] 76.6% | viability, T/C [20] 65.8% | viability, T/C (second compound 0.316 µM, first compound 3.16 µM) 69% | viability, T/C (second compound 0.316 µM, first compound 10 µM) 19.9% | viability, T/C [21] 58.8% | viability, T/C [22] 73.8% | viability, T/C [23] 63.7% | viability, T/C [24] 63.3% | viability, T/C (second compound 1 µM, first compound 3.16 µM) 66.8% | viability, T/C (second compound 1 µM, first compound 10 µM) 19.9%
6.69 µM: IC50 (second compound 0.0316 µM)
4.91 µM: IC50 (second compound 0.316 µM)
5.85 µM: IC50 (second compound 0.1 µM)
